In patent US20230181696A1, “POLYPEPTIDE DRUG FOR PREVENTING AND/OR TREATING NEUROBLASTOMA AND USE THEREOF” (ZHUHAI TENGBAI PHARMACEUTICAL CO., LTD., priority 2020, published 2023):
Peptide text beside a SMILES is read from it.

Assay: Body weight and normal-side kidney weight of tumor-bearing nude mice (toxic side effects)
Conditions: for Body weight of tumor-bearing nude mice: mean ± SEM; for Body weight, End / Relative body weight, End / Kidney weight on normal side / Body weight, Start / Relative body weight, Start: mean±SEM; for Renal weight/body mass index on normal side / Kidney weight on normal side: left kidney, end of experiment
Description: Three days after the surgical modeling, the tumor-bearing mice were imaged with IVIS Spectrum CT in vivo, and the tumor-bearing mice were randomized over groups of 10 mice according to the luminescence intensity in the software analysis results.
Animals were observed daily and weighed every other day. Luminescence was detected with four times of in vivo imaging at day 1 (i.e., 3 days after surgical modeling), day 6, day 12 and day 15 from the experimental grouping. The time of in vivo imaging for luminescence detection was adjusted according to the survival and physical condition of the animals. At the end of the experiment (day 16) the animals were executed by neck dislocation, the kidney tissue and tumor masses was isolated for weighing and photographing, and the tumor masses were preserved in 4% formaldehyde solution for routine pathological testing.
The statistical analysis between groups was one-way ANOVA and Tukey’s test for pairwise comparison, and the statistical analysis between groups at different time points was two-way ANOVA and Bonferroni test for pairwise comparison.

For `CSCC[C@H](NC(=O)CNC(=O)CNC(=O)[C@H](CO)NC(=O)[C@H](CC(C)C)NC(=O)[C@@H]1CCCN1C(=O)[C@H](CO)NC(=O)[C@H](CC(N)=O)NC(=O)[C@H](CC(C)C)NC(=O)[C@H](C)NC(=O)[C@@H](NC(=O)[C@H](CC(C)C)NC(=O)[C@H](Cc1c[nH]cn1)NC(=O)[C@H](CC(C)C)NC(=O)[C@@H](NC(=O)[C@@H]1CCCN1C(=O)[C@H](CCC(N)=O)NC(=O)[C@H](Cc1ccccc1)NC(=O)[C@H](CC(=O)O)NC(=O)[C@H](CCCNC(=N)N)NC(=O)[C@H](Cc1c[nH]cn1)NC(=O)[C@H](CO)NC(=O)[C@H](Cc1c[nH]cn1)NC(=O)[C@H](CCSC)NC(=O)[C@H](CC(=O)O)NC(=O)CNC(=O)[C@H](CCCNC(=N)N)NC(=O)[C@H](CC(=O)O)NC(=O)CNC(=O)[C@@H](N)CCCNC(=N)N)C(C)C)C(C)C)C(=O)O` [HYD-PEP06] (H-RGDRGDMHSHRDFQPVLHLVALNSPLSGGM-OH), the “Body weight of tumor-bearing nude mice” value (5 mg/kg i.v. once a day, Day 1) was 20.8 ± 0.6 g, the “Body weight of tumor-bearing nude mice” value (5 mg/kg i.v. once a day, Day 4) was 21.8 ± 0.6 g and the “Body weight of tumor-bearing nude mice” value (5 mg/kg i.v. once a day, Day 7) was 21.2 ± 0.6 g. For the same compound, the “Body weight of tumor-bearing nude mice” value (5 mg/kg i.v. once a day, Day 10) was 20.9 ± 0.5 g, the “Body weight of tumor-bearing nude mice” value (5 mg/kg i.v. once a day, Day 13) was 21.1 ± 0.4 g and the “Body weight of tumor-bearing nude mice” value (5 mg/kg i.v. once a day, Day 16) was 21.0 ± 0.4 g. For the same compound, the “Body weight, End” value (5 mg/kg i.v. x15) was 21.0 ± 0.4 g, the “Relative body weight, End” value (5 mg/kg i.v. x15) was 101.6 ± 1.9% and the “Renal weight/body mass index on normal side” value (shortened to “Renal weight/body mass index”) (5 mg/kg i.v. x15) was 0.85+0.01%. For the same compound, the “Kidney weight on normal side” value (5 mg/kg i.v. x15) was 0.178 ± 0.003 g, the “Body weight, Start” value (5 mg/kg i.v. x15) was 20.8 ± 0.6 g and the “Relative body weight, Start” value (5 mg/kg i.v. x15) was 100.0±0.0%. The “Body weight of tumor-bearing nude mice” value (10 mg/kg i.v. once a day, Day 1) was 20.2 ± 0.4 g, the “Body weight of tumor-bearing nude mice” value (10 mg/kg i.v. once a day, Day 4) was 21.9 ± 0.3 g and the “Body weight of tumor-bearing nude mice” value (10 mg/kg i.v. once a day, Day 7) was 21.1 ± 0.3 g. The “Body weight of tumor-bearing nude mice” value (10 mg/kg i.v. once a day, Day 10) was 21.2 ± 0.3 g, the “Body weight of tumor-bearing nude mice” value (10 mg/kg i.v. once a day, Day 13) was 21.3 ± 0.2 g and the “Body weight of tumor-bearing nude mice” value (10 mg/kg i.v. once a day, Day 16) was 21.0 ± 0.4 g. The “Body weight, End” value (10 mg/kg i.v. x15) was 21.0 ± 0.4 g, the “Relative body weight, End” value (10 mg/kg i.v. x15) was 104.0±2.2% and the “Renal weight/body mass index” value (10 mg/kg i.v. x15) was 0.85±0.02%. The “Kidney weight on normal side” value (10 mg/kg i.v. x15) was 0.178 ± 0.006 g, the “Body weight, Start” value (10 mg/kg i.v. x15) was 20.2 ± 0.4 g and the “Relative body weight, Start” value (10 mg/kg i.v. x15) was 100.0±0.0%. The “Body weight of tumor-bearing nude mice” value (20 mg/kg i.v. once a day, Day 1) was 20.3 ± 0.4 g, the “Body weight of tumor-bearing nude mice” value (20 mg/kg i.v. once a day, Day 4) was 21.6 ± 0.4 g and the “Body weight of tumor-bearing nude mice” value (20 mg/kg i.v. once a day, Day 7) was 20.9 ± 0.5 g. The “Body weight of tumor-bearing nude mice” value (20 mg/kg i.v. once a day, Day 10) was 20.9 ± 0.5 g, the “Body weight of tumor-bearing nude mice” value (20 mg/kg i.v. once a day, Day 13) was 21.3 ± 0.6 g and the “Body weight of tumor-bearing nude mice” value (20 mg/kg i.v. once a day, Day 16) was 21.3 ± 0.6 g. For the same compound, the “Body weight, End” value (20 mg/kg i.v. x15) was 21.3 ± 0.6 g, the “Relative body weight, End” value (20 mg/kg i.v. x15) was 104.9±3.3% and the “Renal weight/body mass index” value (20 mg/kg i.v. x15) was 0.86+0.01%. For the same compound, the “Kidney weight on normal side” value (20 mg/kg i.v. x15) was 0.182 ± 0.005 g, the “Body weight, Start” value (20 mg/kg i.v. x15) was 20.3 ± 0.4 g and the “Relative body weight, Start” value (20 mg/kg i.v. x15) was 100.0±0.0%. The “Kidney weight, kidney weight/body mass index in the normal side (left side) and body weight vs model control group” value (5, 10, 20 mg/kg i.v. x15) was “No significant differences” and the Toxic side effects (at the effective dose (5-20 mg/kg i.v. x15)) was “did not show significant toxic side effects”.
